Data: patent US11866430B2, “Naphthyridinone compounds useful as T cell activators” (priority 2018, dated 2024)

Experiments:
human DGKζ [1] = target: T1, human DGKζ (Homo sapiens (Human), UniProt Q13574); assay: DGKζ LIPGLO assay (extruded liposome substrate); format: biochemical; conditions: extruded liposome substrate; read-out: DGKζ LIPGLO IC50
Protocol: (§1) The DGKα and DGKζ reactions were performed using either extruded liposome (DGKα and DGKζ LIPGLO assays) or detergent/lipid micelle substrate (DGKα and DGKζ assays). The reactions were carried out in 50 mM MOPS pH 7.5, 100 mM NaCl, 10 mM MgCl2, 1 μM CaCl2, and 1 mM DTT (assay buffer). The reactions using a detergent/lipid micelle substrate also contained 50 mM octyl B-D-glucopyranoside.
(§2) A 5 mL enzyme/substrate solution at 2× final reaction concentration was prepared by combining 2.5 mL 4× enzyme solution (20 nM DGKα or DGKζ (prepared as described below) in assay buffer) and 2.5 mL of either 4× liposome or 4× detergent/lipid micelle solution (compositions described below) and incubated at room temperature for 10 minutes. Next, 1 μL 2× enzyme/substrate solution was added to wells containing the test compound and reactions were initiated with the addition of 1 μL 300 uM ATP. The reactions were allowed to proceed for 1 hr, after which 2 μL Glo Reagent (Promega V9101) was added and incubated for 40 minutes. Next, 4 μL Kinase Detection Reagent was added and incubated for 30 minutes. Luminescence was recorded using an EnVision microplate reader. […] The compounds were evaluated at 11 concentrations to determine IC50.
(§3) The PC, DAG, and PS were dissolved in chloroform, combined, and dried in vacuo to a thin film. The lipids were hydrated to 20 mM in 50 mM MOPS pH 7.5, 100 mM NaCl, 5 mM MgCl2, and were freeze-thawed five times. The lipid suspension was extruded through a 100 nm polycarbonate filter eleven times. […] The liposome preparation was stored at 4° C. for as long as four weeks.
Baculovirus amplification was achieved using infected Sf9 cells at 1:1500 virus/cell ratios, and grown for 65 hours at 27° C. post-transfection.
(§4) The expression scale up for each protein was carried out in the Cellbag 50 L WAVE-Bioreactor System 20/50 from GE Healthcare Bioscience. 12 L of 2×10^6 cells/mL Sf9 cells (Expression System, Davis, Calif.) grown in ESF921 insect medium (Expression System) were infected with virus stock at 1:200 virus/cell ratios, and grown for 66-68 hours at 27° C. post-infection. The infected cell culture was harvested by centrifugation at 2000 rpm for 20 min 4° C. in a SORVALL® RC12BP centrifuge. The cell pellets were stored at −70° C. until purification.
The cells were lysed using nitrogen cavitation method with a nitrogen bomb (Parr Instruments), and the lysates were clarified by centrifugation. […] The three steps column chromatography included nickel affinity resin capture (i.e. HisTrap FF crude, GE Healthcare), followed by size exclusion chromatography (i.e. HiLoad 26/600 Superdex 200 prep grade, GE Healthcare for DGK-alpha, and HiPrep 26/600 Sephacryl S 300_HR, GE Healthcare for DGK-zeta). The third step was ion exchange chromatography, and differed for the two isoforms. DGKα was polished using Q-Sepharose anion exchange chromatography (GE Healthcare). DGKζ was polished using SP Sepharose cation exchange chromatography (GE Healthcare). The proteins were delivered at concentrations of ≥2 mg/mL. The formulation buffers were identical for both proteins: 50 mM Hepes, pH 7.2, 500 mM NaCl, 10% v/v glycerol, 1 mM TCEP, and 0.5 mM EDTA.

human DGKα [2] = target: T2, human DGKα (Homo sapiens (Human), UniProt P23743); assay: DGKα LIPGLO assay (extruded liposome substrate); format: biochemical
Protocol: as §1, with “B-D-glucopyranoside. […] The lipid substrate concentrations were […], 0.25 mM DAG, and 2.75 mM PC for the extruded liposome reactions.” for “B-D-glucopyranoside.”
as §2, with “The compound inhibition studies were carried out as follows: 50 nL droplets of each test compound (top concentration 10 mM with 11 point, 3-fold dilution series for each compound) solubilized in DMSO were transferred to wells of a white 1536 well plate (Corning 3725). A 5” for “A 5”
as §3
Human DGK-alpha-TVMV-His-pFBgate and human DCK-zeta-transcript variant-2-TVMV-His-pFBgate baculovirus samples were generated using the Bac-to-Bac baculovirus expression system (Invitrogen) according to the manufacturer's protocol. The DNA used for expression of DGK-alpha and DGK-zeta have SEQ ID NOs: 1 and 3, respectively. Baculovirus amplification was achieved using infected Sf9 cells at 1:1500 virus/cell ratios, and grown for 65 hours at 27° C. post-transfection.
as §4
Full length human DGKα and DGKζ, each expressed containing a TVMV-cleavable C-terminal Hexa-His tag sequence (SEQ ID NOs: 2 and 4, respectively) and produced as described above, were purified from Sf) baculovirus-infected insect cell paste. The cells were lysed using nitrogen cavitation method with a nitrogen bomb (Parr Instruments), and the lysates were clarified by centrifugation. […] The three steps column chromatography included nickel affinity resin capture (i.e. HisTrap FF crude, GE Healthcare), followed by size exclusion chromatography (i.e. HiLoad 26/600 Superdex 200 prep grade, GE Healthcare for DGK-alpha, and HiPrep 26/600 Sephacryl S 300_HR, GE Healthcare for DGK-zeta). The third step was ion exchange chromatography, and differed for the two isoforms.

[3] = tested on: pre-activated CD4 T cells and Raji cells; assay: Raji CD4 T Cell IL2 Assay; format: cell-based; conditions: Homo sapiens, Raji
human DGKζ [4] = target: T1, human DGKζ; assay: DGKζ assay (detergent/lipid micelle substrate); format: biochemical; conditions: detergent/lipid micelle substrate; read-out: DGKζ IC50
In short: (§5)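 Full-length human DGKα or DGKζ (C-terminal His tag, Sf9-expressed; 20 nM 4× stock) was preincubated 10 min at room temperature with PS/DAG octyl glucoside micelles in MOPS pH 7.5 buffer with MgCl2, CaCl2 and DTT. It was then started with ATP (300 uM addition) and run for 1 hr, with ADP-Glo luminescence read-out.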

human DGKα [5] = target: T2, human DGKα; assay: biochemical; conditions: detergent/lipid micelle substrate; read-out: DGKα IC50
In short: as §5

T2 sequence (P23743 other isoform, or with tags, fused parts or gaps): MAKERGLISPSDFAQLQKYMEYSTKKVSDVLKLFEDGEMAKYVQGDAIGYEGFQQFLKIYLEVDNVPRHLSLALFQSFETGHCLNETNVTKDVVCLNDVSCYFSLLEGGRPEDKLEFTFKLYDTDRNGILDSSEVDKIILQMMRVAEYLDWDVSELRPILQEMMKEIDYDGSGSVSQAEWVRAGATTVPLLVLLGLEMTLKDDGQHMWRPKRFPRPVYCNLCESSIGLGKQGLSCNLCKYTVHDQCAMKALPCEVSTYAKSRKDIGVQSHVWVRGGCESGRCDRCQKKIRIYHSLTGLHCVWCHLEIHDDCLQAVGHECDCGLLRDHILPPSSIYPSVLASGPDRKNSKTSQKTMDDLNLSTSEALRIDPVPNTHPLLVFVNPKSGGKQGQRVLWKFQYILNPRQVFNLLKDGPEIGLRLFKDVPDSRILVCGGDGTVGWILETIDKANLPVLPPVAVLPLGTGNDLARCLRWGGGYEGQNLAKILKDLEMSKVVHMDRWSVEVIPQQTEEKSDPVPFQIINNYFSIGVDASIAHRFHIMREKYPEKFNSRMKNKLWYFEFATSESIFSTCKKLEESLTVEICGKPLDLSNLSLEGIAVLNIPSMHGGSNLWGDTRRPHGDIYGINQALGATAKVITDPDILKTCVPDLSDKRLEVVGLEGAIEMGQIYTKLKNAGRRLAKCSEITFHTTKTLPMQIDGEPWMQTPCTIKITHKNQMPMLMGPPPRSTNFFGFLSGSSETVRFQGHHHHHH
T1 sequence (Q13574 other isoform, or with tags, fused parts or gaps): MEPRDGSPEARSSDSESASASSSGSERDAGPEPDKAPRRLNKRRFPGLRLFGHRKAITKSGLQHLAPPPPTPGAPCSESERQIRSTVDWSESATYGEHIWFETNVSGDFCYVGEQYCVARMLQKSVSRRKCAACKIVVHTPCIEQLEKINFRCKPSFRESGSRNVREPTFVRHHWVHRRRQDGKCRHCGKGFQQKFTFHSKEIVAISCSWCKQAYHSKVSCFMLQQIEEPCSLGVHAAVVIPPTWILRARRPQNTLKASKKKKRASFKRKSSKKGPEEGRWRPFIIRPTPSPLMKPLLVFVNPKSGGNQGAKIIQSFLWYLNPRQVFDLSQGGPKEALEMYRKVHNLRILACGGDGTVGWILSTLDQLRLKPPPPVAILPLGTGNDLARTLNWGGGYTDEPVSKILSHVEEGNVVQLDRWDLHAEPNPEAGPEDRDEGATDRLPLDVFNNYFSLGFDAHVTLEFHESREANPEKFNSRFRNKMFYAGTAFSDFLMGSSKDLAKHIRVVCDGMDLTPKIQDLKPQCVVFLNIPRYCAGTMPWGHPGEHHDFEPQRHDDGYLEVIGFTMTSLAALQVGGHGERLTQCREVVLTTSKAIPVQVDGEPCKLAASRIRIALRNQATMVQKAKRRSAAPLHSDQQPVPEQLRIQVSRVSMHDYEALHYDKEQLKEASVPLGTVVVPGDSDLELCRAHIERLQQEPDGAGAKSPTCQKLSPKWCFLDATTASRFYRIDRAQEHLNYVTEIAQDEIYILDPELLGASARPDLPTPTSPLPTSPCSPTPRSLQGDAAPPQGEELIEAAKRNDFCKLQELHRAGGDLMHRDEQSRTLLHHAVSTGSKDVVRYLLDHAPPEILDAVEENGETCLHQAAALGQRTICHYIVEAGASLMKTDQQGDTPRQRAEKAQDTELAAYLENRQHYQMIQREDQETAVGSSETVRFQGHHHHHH

Compound	IC50 (human DGKζ [1]) [nM]	IC50 (human DGKα [2]) [nM]	IC50 [3] [nM]	IC50 (human DGKζ [4]) [nM]	IC50 (human DGKα [5]) [nM]
COc1cccnc1C(c1ccc(F)cc1)N1CCN(c2c(C#N)c(=O)n(C)c3ccc(C)nc23)CC1 (centres unmarked) [Example 255, 4-{4-[(4-fluorophenyl)(3-methoxypyridin-2-yl)methyl]piperazin-1-yl}-1,6-dimethyl-2-oxo-1,2-dihydro-1,5-naphthyridine-3-carbonitrile]	21000	1400			
COc1cc(F)ccc1C(c1ccc(F)cc1OC)N1CCN(c2c(C#N)c(=O)n(C)c3ccc(C#N)nc23)CC1 [Example 409, 8-{4-[bis(4-fluoro-2-methoxyphenyl)methyl]piperazin-1-yl}-5-methyl-6-oxo-5,6-dihydro-1,5-naphthyridine-2,7-dicarbonitrile]	950	> 240000			
Cc1ccc2c(n1)c(N1CCN(C(c3ccc(F)cc3)C3CC3)CC1)c(C#N)c(=O)n2C (centres unmarked) [Example 250, 4-{4-[cyclopropyl(4-fluorophenyl)methyl]piperazin-1-yl}-1,6-dimethyl-2-oxo-1,2-dihydro-1,5-naphthyridine-3-carbonitrile]	> 240000	5100			
COc1ncccc1C(c1ccc(F)cc1)N1CCN(c2c(C#N)c(=O)n(C)c3ccc(C)nc23)CC1 (centres unmarked) [Example 254, 4-{4-[(4-fluorophenyl)(2-methoxypyridin-3-yl)methyl]piperazin-1-yl}-1,6-dimethyl-2-oxo-1,2-dihydro-1,5-naphthyridine-3-carbonitrile]	16000	1700			
Cn1c(=O)c(C#N)c(N2CCN(C(c3ccc(F)cc3)c3ccc(F)cc3)CC2)c2ncccc21 [Example 347, 4-{4-[bis(4-fluorophenyl)methyl]piperazin-1-yl}-1-methyl-2-oxo-1,2-dihydro-1,5-naphthyridine-3-carbonitrile]		2600	1200		
Cn1c(=O)c(C#N)c(N2CCN(Cc3ccc(OC(F)(F)F)cc3O)CC2)c2nc(Cl)ccc21 [Example 381, 6-chloro-4-(4-{[2-hydroxy-4-(trifluoromethoxy)phenyl]methyl}piperazin-1-yl)-1-methyl-2-oxo-1,2-dihydro-1,5-naphthyridine-3-carbonitrile]	27000			> 240000	
Cn1c(=O)c(C#N)c(N2CCN(Cc3ccc(O)c(Cl)c3)CC2)c2nc(Cl)ccc21 [Example 354, 6-chloro-4-{4-[(3-chloro-4-hydroxyphenyl)methyl]piperazin-1-yl}-1-methyl-2-oxo-1,2-dihydro-1,5-naphthyridine-3-carbonitrile]			2500	> 240000	110
Cc1ccc2c(n1)c(N1CCN(C(c3ccc(F)cc3)c3ccc(F)cc3)CC1)cc(=O)n2C [Example 427, 4-{4-[bis(4-fluorophenyl)methyl]piperazin-1-yl}-1,6-dimethyl-1,2-dihydro-1,5-naphthyridin-2-one]			2400	> 240000	150000
C#CCn1c(=O)c([N+](=O)[O-])c(N2CCN(C(c3ccc(F)cc3)c3ccccc3OC)CC2)c2nc(C#N)ccc21 (single isomer, unassigned) [Example 130, 8-(4-((4-fluorophenyl)(2-methoxyphenyl)methyl)piperazin-1-yl)-7-nitro-6-oxo-5-(prop-2-yn-1-yl)-5,6-dihydro-1,5-naphthyridine-2-carbonitrile]	310		19	1900	30000
Cn1c(=O)c(C#N)c(N2CCN(Cc3ccc(O)c(C(F)(F)F)c3)CC2)c2nc(Cl)ccc21 [Example 355, 6-chloro-4-(4-{[4-hydroxy-3-(trifluoromethyl)phenyl]methyl}piperazin-1-yl)-1-methyl-2-oxo-1,2-dihydro-1,5-naphthyridine-3-carbonitrile]			2800	> 240000	7100
COc1cccc(O)c1CN1CCN(c2c(C#N)c(=O)n(C)c3ccc(Br)nc23)CC1 [Example 314, 6-bromo-4-{4-[(2-hydroxy-6-methoxyphenyl)methyl]piperazin-1-yl}-1-methyl-2-oxo-1,2-dihydro-1,5-naphthyridine-3-carbonitrile]			250	82000	170
Cn1c(=O)c(C#N)c(N2CCN(Cc3ccc(Cl)cc3O)CC2)c2nc(Br)ccc21 [Example 266, 6-bromo-4-{4-[(4-chloro-2-hydroxyphenyl)methyl]piperazin-1-yl}-1-methyl-2-oxo-1,2-dihydro-1,5-naphthyridine-3-carbonitrile]	11000		41	> 240000	27
N#CCn1c(=O)c([N+](=O)[O-])c(N2CCN(C(c3ccc(F)cc3)c3ccc(F)cc3)CC2)c2nc(C#N)ccc21 [Example 152, 8-(4-(bis(4-fluorophenyl)methyl)piperazin-1-yl)-5-(cyanomethyl)-7-nitro-6-oxo-5,6-dihydro-1,5-naphthyridine-2-carbonitrile]			150	3900	150000
COc1ccccc1C(c1ccc(F)cc1)N1CCN(c2c([N+](=O)[O-])c(=O)n(C)c3ccc(C#N)nc23)CC1 (racemic) [Example 18, 8-{4-[(4-fluorophenyl)(2-methoxyphenyl)methyl]piperazin-1-yl}-5-methyl-7-nitro-6-oxo-5,6-dihydro-1,5-naphthyridine-2-carbonitrile]			23	2500	960
